Experimental findings from ChEMBL document CHEMBL2406993, “Deconstruction of a nutlin: dissecting the binding determinants of a potent protein-protein interaction inhibitor” (ACS Med Chem Lett, 2013) are described below.

Active and inactive are the calls of the source. The rule behind the calls is not given here.

Test [1] is filed under the species Homo sapiens. Kind of test: Inhibition of Humanized-Xenopus MDM2 (13-119 amino acids) interaction with p53 at 1 to 2.5 mM by SPR analysis.
The species named for test [2] is Homo sapiens. Kind of test: Inhibition of [15N]-labeled humanized-Xenopus MDM2 (13-119 amino acids) interaction with p53 at 1 mM by NMR method.
A short description of test [3]: Inhibition of Humanized-Xenopus MDM2 (13-119 amino acids) interaction with p53 by SPR analysis. The arrangement: species or system Homo sapiens.
Test [4] is filed under the species Homo sapiens. Description: Inhibition of [15N]-labeled humanized-Xenopus MDM2 (13-119 amino acids) interaction with p53 at 0.4 mM by NMR method.
For test [5], the species on record is Homo sapiens. Description: Inhibition of Humanized-Xenopus MDM2 (13-119 amino acids) interaction with p53 at 100 uM by SPR analysis.
For test [6], the species on record is Homo sapiens. Kind of test: Inhibition of [15N]-labeled humanized-Xenopus MDM2 (13-119 amino acids) interaction with p53 at 0.5 mM by NMR method.
The species named for test [7] is Homo sapiens. Kind of test: Inhibition of [15N]-labeled humanized-Xenopus MDM2 (13-119 amino acids) interaction with p53 at 2 mM by NMR method.

Regarding `Clc1ccccc1`, the inhibition result in the test listed under Homo sapiens [1] and in the test listed under Homo sapiens [2] was “inactive” throughout.
`CCOc1cc(C(C)(C)C)ccc1C1=NC(c2ccccc2)CN1C(=O)N1CCN(CCCS(C)(=O)=O)CC1` (configuration not stated) showed a Kd in test [3] of 1000 µM. The inhibition result in the test listed under Homo sapiens [2] was “Active”.
For `CC1=N[C@@H](c2ccc(Cl)cc2)[C@@H](c2ccc(Cl)cc2)N1`, in the test filed under Homo sapiens [4], the inhibition result was “Active”. Besides, in test [3], binding was characterised by a dissociation constant (Kd) of 26 µM.
As for `CCOc1cc(C(C)(C)C)ccc1C1=NCCN1C(=O)N1CCN(CCCS(C)(=O)=O)CC1`, the inhibition result in the test listed under Homo sapiens [5] and in the test listed under Homo sapiens [2] was “inactive” throughout.
In the case of `CCOc1cc(C(C)(C)C)ccc1C1=N[C@@](C)(c2ccc(Cl)cc2)[C@@](C)(c2ccc(Cl)cc2)N1C(=O)N1CCN(CCCS(C)(=O)=O)CC1` [RO-5045337], the inhibition result in the test listed under Homo sapiens [6] is “Active”. Moreover, in test [3], the Kd amounted to 0.22 µM.
`CC1=N[C@@](C)(c2ccc(Cl)cc2)[C@@](C)(c2ccc(Cl)cc2)N1C(=O)N1CCN(CCCS(C)(=O)=O)CC1` returned a Kd in test [3] of 14 µM. Also, the inhibition entry in the test filed under Homo sapiens [2] was “Active”.
For `CC1=N[C@@H](c2ccccc2)[C@@H](c2ccccc2)N1`, the inhibition result in the test filed under Homo sapiens [1] and in the test filed under Homo sapiens [7] was “inactive” each time.
Consider `CCOc1cc(C(C)(C)C)ccc1C1=NCC(c2ccc(Cl)cc2)N1` (configuration not stated), for which the inhibition entry in the test filed under Homo sapiens [5] is “inactive”. Moreover, the inhibition result in the test filed under Homo sapiens [7] is “Active”.
In the case of `CCOc1cc(C(C)(C)C)ccc1-c1ncc[nH]1`, the inhibition entry in the test listed under Homo sapiens [1] and in the test listed under Homo sapiens [7] was “inactive” each time.
For `c1c[nH]cn1`, the inhibition result in the test listed under Homo sapiens [1] and in the test listed under Homo sapiens [2] was “inactive” in each case.
As for `CCOc1cc(C(C)(C)C)ccc1C1=N[C@@](C)(c2ccc(Cl)cc2)[C@@](C)(c2ccc(Cl)cc2)N1`, in the test filed under Homo sapiens [4], the inhibition result is “Active”. This compound also gave a Kd in test [3] of 20 µM.
